Measurements as given in ChEMBL document CHEMBL1126925, “Nonprostanoid prostacyclin mimetics. 4. Derivatives of 2-[3-[2-(4,5-diphenyl-2-oxazolyl)ethyl]phenoxy]acetic acid substituted alpha to the oxazole ring” (J Med Chem, 1993).

Species: Homo sapiens
Assay: In vitro inhibition of ADP-induced aggregation of human platelets
Type: functional

Work on `O=C(O)COc1cccc(/C=C/c2nc(-c3ccccc3)c(-c3ccccc3)o2)c1` yielded an IC50 of 13000 nM.

In the case of `O=C(O)COc1cccc(CC(c2ccsc2)c2nc(-c3ccccc3)c(-c3ccccc3)o2)c1` (stereo unspecified), the IC50 is reported as 20700 nM.

Molecule `N#C/C(=C\c1cccc(OCC(=O)O)c1)c1nc(-c2ccccc2)c(-c2ccccc2)o1` has an IC50 of 250 nM.

`NC(=O)C(Cc1cccc(OCC(=O)O)c1)c1nc(-c2ccccc2)c(-c2ccccc2)o1` (stereo unspecified) was tested, and the IC50 was 3750 nM.

Work on `CC(C)(C)C(Cc1cccc(OCC(=O)O)c1)c1nc(-c2ccccc2)c(-c2ccccc2)o1` (stereo unspecified) yielded an IC50 of 3660 nM.

With `CC(C)OC(=O)C(Cc1cccc(OCC(=O)O)c1)c1nc(-c2ccccc2)c(-c2ccccc2)o1` (stereo unspecified) the IC50 was 1220 nM.

`CSC(Cc1cccc(OCC(=O)O)c1)c1nc(-c2ccccc2)c(-c2ccccc2)o1` (stereo unspecified) showed an IC50 of 1300 nM.

Molecule `O=C(O)COc1cccc(CC(c2ccccc2)c2nc(-c3ccccc3)c(-c3ccccc3)o2)c1` (stereo unspecified) has an IC50 of 23200 nM.

Work on `O=C(O)COc1cccc(CC(c2nc(-c3ccccc3)c(-c3ccccc3)o2)c2cccs2)c1` (stereo unspecified) yielded an IC50 of 33200 nM.

With `CC(C)C(Cc1cccc(OCC(=O)O)c1)c1nc(-c2ccccc2)c(-c2ccccc2)o1` (stereo unspecified) the IC50 was 970 nM.

`COC(=O)C(Cc1cccc(OCC(=O)O)c1)c1nc(-c2ccccc2)c(-c2ccccc2)o1` (stereo unspecified) was tested, and the IC50 was 80 nM.

`O=C(O)COc1cccc(CC(C(=O)O)c2nc(-c3ccccc3)c(-c3ccccc3)o2)c1` (stereo unspecified) showed an IC50 of 14000 nM.

`CS(=O)(=O)C(Cc1cccc(OCC(=O)O)c1)c1nc(-c2ccccc2)c(-c2ccccc2)o1` (stereo unspecified) was tested, and the IC50 was 7960 nM.

With `O=C(O)COc1cccc(CC(CCO)c2nc(-c3ccccc3)c(-c3ccccc3)o2)c1` (stereo unspecified) the IC50 was 2920 nM.

`C=CCC(Cc1cccc(OCC(=O)O)c1)c1nc(-c2ccccc2)c(-c2ccccc2)o1` (stereo unspecified) gave an IC50 of 570 nM.

For `CNC(=O)/C(=C\c1cccc(OCC(=O)O)c1)c1nc(-c2ccccc2)c(-c2ccccc2)o1`, the IC50 was 15000 nM.

For `CCOC(=O)/C(=C\c1cccc(OCC(=O)OC(C)(C)C)c1)c1nc(-c2ccccc2)c(-c2ccccc2)o1`, the IC50 was > 60000 nM.

Work on `CCOC(=O)/C(=C\c1cccc(OCC(=O)O)c1OC)c1nc(-c2ccccc2)c(-c2ccccc2)o1` yielded an IC50 of 130 nM.

`CCOC(=O)C(Cc1cccc(OCC(=O)O)c1OC)c1nc(-c2ccccc2)c(-c2ccccc2)o1` (stereo unspecified) showed an IC50 of 1180 nM.

With `CCOC(=O)/C(=C\c1cccc(OCC(=O)O)c1)c1nc(-c2ccccc2)c(-c2ccccc2)o1` the IC50 was 360 nM.

Work on `O=C(O)COc1cccc(CC(CCCCO)c2nc(-c3ccccc3)c(-c3ccccc3)o2)c1` (stereo unspecified) yielded an IC50 of 4680 nM.

Work on `CN(C)C(=O)C(=Cc1cccc(OCC(=O)O)c1)c1nc(-c2ccccc2)c(-c2ccccc2)o1` yielded an IC50 of 12200 nM.

`CCOC(=O)C(Cc1cccc(OCC(=O)O)c1)c1nc(-c2ccccc2)c(-c2ccccc2)o1` (stereo unspecified) gave an IC50 of 120 nM.

With `O=C(O)COc1cccc(/C=C\c2nc(-c3ccccc3)c(-c3ccccc3)o2)c1` the IC50 was 180 nM.

In the case of `CN(C)C(=O)C(Cc1cccc(OCC(=O)O)c1)c1nc(-c2ccccc2)c(-c2ccccc2)o1` (stereo unspecified), the IC50 is reported as 3560 nM.

Molecule `C=CCC(Cc1cccc(OCC(=O)O)c1)(C(=O)OCC)c1nc(-c2ccccc2)c(-c2ccccc2)o1` (stereo unspecified) has an IC50 of 7680 nM.

With `CCOC(=O)C(=Cc1cccc(OCC(=O)OC)c1)c1nc(-c2ccccc2)c(-c2ccccc2)o1` [listing 1 of 2 here] the IC50 was 19700 nM.

For `N#CC(Cc1cccc(OCC(=O)O)c1)c1nc(-c2ccccc2)c(-c2ccccc2)o1` (stereo unspecified), the IC50 was 440 nM.

`CNC(=O)C(Cc1cccc(OCC(=O)O)c1)c1nc(-c2ccccc2)c(-c2ccccc2)o1` (stereo unspecified) showed an IC50 of 690 nM.

`C[S+]([O-])C(Cc1cccc(OCC(=O)O)c1)c1nc(-c2ccccc2)c(-c2ccccc2)o1` (stereo unspecified) showed an IC50 of 7080 nM.

With `O=C(O)COc1cccc(CC(CO)c2nc(-c3ccccc3)c(-c3ccccc3)o2)c1` (stereo unspecified) the IC50 was 9310 nM.

In the case of `O=C(O)COc1cccc(/C=C(\C(=O)O)c2nc(-c3ccccc3)c(-c3ccccc3)o2)c1`, the IC50 is reported as 20300 nM.

`O=C(O)COc1cccc(CC(CCCO)c2nc(-c3ccccc3)c(-c3ccccc3)o2)c1` (stereo unspecified) showed an IC50 of 1700 nM.

For `CCOC(=O)C(=Cc1cccc(OCC(=O)OC)c1)c1nc(-c2ccccc2)c(-c2ccccc2)o1` [listing 2 of 2 here], the IC50 was 2000 nM.

Work on `CCOP(=O)(OCC)C(Cc1cccc(OCC(=O)O)c1)c1nc(-c2ccccc2)c(-c2ccccc2)o1` (stereo unspecified) yielded an IC50 of 900 nM.

With `CC#CCC(C)[C@H](O)/C=C/[C@@H]1[C@H]2C/C(=C/CCCC(=O)O)C[C@H]2C[C@H]1O` (stereo partly specified) [ILOPROST] the IC50 was 2 nM.
